Experiment [1] has as its system c-Myc (DNA, G4) TGAGGGTGGGTAGGGTGGGTAA
Briefly: thiazole orange displacement (TO-FID). The settings on record: K+ 100 mM; 10 mM Tris-HCl, pH 7.3; thiazole orange 2 μM displaced; DNA 1 μM; helicene 0-20 μM.

The test system is the same in experiment [2]. Briefly: fluorescence titration, simple binding model. The settings on record: K+ 100 mM, 10 mM lithium cacodylate, pH 7.3, stoichiometry fixed, equivalent stereoisomers, per site.
Experiment [3] shares this test system. Description: fluorescence titration, competitive binding model. As to conditions: K+ 100 mM, 10 mM lithium cacodylate, pH 7.3, 32% and 96% ee samples, helicene 6 μM, per site.
Experiment [4] has as its system HTG4 (DNA, G4) AGGGTTAGGGTTAGGGTTAGGG
Description: fluorescence titration, competitive binding model. The settings on record: K+ 100 mM, 10 mM lithium cacodylate, pH 7.3, 32% and 96% ee samples, helicene 6 μM, per site.

Experiment [5] deals with BCL2 (BCL2Mid) (DNA, G4) GGGCGCGGGAGGAATTGGGCGGG
Briefly: fluorescence titration, competitive binding model. The settings on record: K+ 100 mM, 10 mM lithium cacodylate, pH 7.3, 32% and 96% ee samples, helicene 6 μM, per site.

In experiment [1], `CCCN1c2ccc3ccccc3c2-c2c3c1cccc3[n+](CCC)c1ccc3ccccc3c21` showed a DC50 of 3.8 µM. In addition, the Kd in experiment [2] (helicene 4 μM constant) is 0.7 µM.

As for `OCCN1c2ccc3ccccc3c2-c2c3c1cccc3[n+](CCO)c1ccc3ccccc3c21`, the Kd came to 3.8 µM in experiment [3] (KM from simultaneous fit of 0%); 4.7 µM in experiment [3] (KP from simultaneous fit of 0%); 6.2 µM in experiment [4] (KM from simultaneous fit of 0%); 7.5 µM in experiment [4] (KP from simultaneous fit of 0%); 4.7 µM in experiment [2]; 5.1 µM in experiment [5] (KM from simultaneous fit of 0%). This compound registered a dissociation constant Kd in experiment [5] (KP from simultaneous fit of 0%) of 7.5 µM. The compound also yielded a DC50 in experiment [1] of 4.4 µM.

With `c1ccc2c3c(ccc2c1)N(CCN1CCOCC1)c1cccc2c1c-3c1c3ccccc3ccc1[n+]2CCN1CCOCC1`, the DC50 in experiment [1] worked out at 6.0 µM. The Kd in experiment [2] amounted to 3.8 µM.

For orientation: Kd means a measure of binding affinity in units of concentration.

Values taken from publication PMC8580066 (2021).
